Measured values as given in article PMC11209700, “In Silico Drug Repurposing Uncovered the Antiviral Potential of the Antiparasitic Drug Oxibendazole Against the Chikungunya Virus” (ACS Omega, 2024).
Starred links: 1 amine or outer side, 2 acyl side, 3 side chain; linkers in the order of their positions; H or OH if unused. Positions of bridges follow the written chain, without caps; N, C: chain ends. Non-standard residues stand in square brackets, D forms with d. Residues, ends and D or L forms follow the SMILES beside them. *: point of attachment. hTyr(3S-OH,4S-OH,3'-OSO3H) = N[C@H](C(=O)O)[C@H](O)[C@@H](O)c1ccc(O)c(OS(=O)(=O)O)c1; Orn(4R-OH,5R-OH) = O=C([C@H](C[C@@H](O)[C@@H](O)N[*:3])N[*:1])[*:2]; Pro(3S-OH,4S-Me) = C[C@H]1CN[C@H](C(=O)O)[C@H]1O; X1 = CCCCCOc1ccc(-c2cc(-c3ccc(C(=O)*)cc3)no2)cc1; Gln(3R-OH) = NC(=O)C[C@@H](O)[C@H](N)C(=O)O; Hyp = O=C(O)[C@@H]1C[C@@H](O)CN1

Assays:
CHIKV [1] = conditions: read-out: EC50 against CHIKV; cited from earlier work
CHIKV BRA/RJ/18 [2] = assay: Antiviral evaluation against CHIKV BRA/RJ/18 replication in Vero cells (plaque assay); format: cell-based, Chikungunya virus; conditions: for EC50 / inhibition at 50 µM: Chikungunya virus, Vero; for EC50: 24 h, read-out: CHIKV BRA/RJ/18 EC50; for CHIKV BRA/RJ/18 EC50: Vero cells, MOI 1, 24 h; for inhibition at 50 µM: read-out: CHIKV BRA/RJ/18 inhibition (%); for CHIKV BRA/RJ/18 SI (selectivity index): ratio between CC50 and EC50 values
[3] = Cytotoxicity by MTT assay in Vero cells; conditions: African green monkey
CHIKV [4] = conditions: cited from earlier work
CHIKV 181-25 strain = assay: Antiviral screening against CHIKV 181-25 replication in Vero cells (plaque assay); format: cell-based, Chikungunya virus; conditions: inhibition rate of CHIKV replication at 50 μM, % relative to control, 24 hpi; for inhibition at 50 µM: Chikungunya virus; for CHIKV 181-25 inhibition (%): 50 µM
Description: DMSO (0.5%) was used as vehicle control, while CQ (50 μM) was used as a positive control due to its in vitro antiviral activity against CHIKV.[57]
Finally, the overlay medium was removed, and cells were fixed and stained with 10% formaldehyde and 0.2% crystal violet. Plaques were counted, and virus titers were determined as PFU/mL. Inhibition rates were determined by comparing the number of PFU of infected and treated cells and infected and untreated cells (100% infectivity).

CHIKV BRA/RJ/18 [5] = assay: Time-of-drug addition assay; format: cell-based; conditions: Chikungunya virus
CHIKV BRA/RJ/18 [6] = assay: Virucidal assay; format: cell-based, Chikungunya virus; conditions: 50 μM, 2 × 10^5 PFU treated 2 h at 37 °C
human herpesvirus 8 = conditions: read-out: EC50 against human herpesvirus 8; cited from earlier work
Zika virus = conditions: read-out: EC50 against Zika virus; cited from earlier work
rats = conditions: doses up to 10 g/kg; cited from earlier work
mice = conditions: doses up to 10 g/kg; cited from earlier work
[7] = single oral dose of 400 mg; cited from earlier work
CHIKV BRA/RJ/18 [8] = assay: Entry assay; conditions: Chikungunya virus, read-out: inhibition rate in virus entry assay
CHIKV BRA/RJ/18 [9] = assay: Attachment assay; conditions: Chikungunya virus, read-out: inhibition rate in attachment assay
CHIKV BRA/RJ/18 [10] = assay: Virus release assay; conditions: 50 μM, 6 hpi

For `CCCCCCCCCCC[C@@H](C[C@@H]1OC(=O)[C@H]1CCCCCC)OC(=O)[C@H](CC(C)C)NC=O` [orlistat], the EC50 (CHIKV [1]) is listed as 0.82 µM.

For `CCCSc1ccc2nc(NC(=O)OC)[nH]c2c1` [ABZ, albendazole], the EC50 (CHIKV BRA/RJ/18 [2]) was greater than 50 µM, the “CHIKV BRA/RJ/18 EC50” value (CHIKV BRA/RJ/18 [2]) was “none exhibited anti-CHIKV activity” and the CC50 at 72 h [3] was greater than 500 µM.

In the case of `Cc1ccc(C(=O)Nc2ccc(S(=O)(=O)O)c3cc(S(=O)(=O)O)cc(S(=O)(=O)O)c23)cc1NC(=O)c1cccc(NC(=O)Nc2cccc(C(=O)Nc3cc(C(=O)Nc4ccc(S(=O)(=O)O)c5cc(S(=O)(=O)O)cc(S(=O)(=O)O)c45)ccc3C)c2)c1` [suramin], the EC50 (CHIKV [1]) is given as 21.5 µM and the “effect on CHIKV infection in mice” value (CHIKV [4]) is given as “ameliorate CHIKV infection in mice”.

In the case of `CCN(CC)CCCC(C)Nc1ccnc2cc(Cl)ccc12` (stereo not drawn) [CQ, chloroquine], the inhibition at 50 µM (CHIKV 181-25 strain) is reported as 98.2 ± 0.2%, the EC50 (CHIKV BRA/RJ/18 [2]) is reported as 47.5 ± 10.2 µM and the inhibition at 50 µM (CHIKV BRA/RJ/18 [2]) is reported as 48.5 ± 11.7%. For the same molecule, the “CHIKV BRA/RJ/18 SI (selectivity index)” value (CHIKV BRA/RJ/18 [2]) was 9.9 and the CC50 at 72 h [3] was 469 ± 84.4 µM.

For `CCCc1nc2c(C)cc(-c3nc4ccccc4n3C)cc2n1Cc1ccc(-c2ccccc2C(=O)O)cc1` [telmisartan], the EC50 (CHIKV [1]) is listed as 15.3 µM and the “effect on CHIKV infection in mice” value (CHIKV [4]) is listed as “ameliorate CHIKV infection in mice”.

For `CC(=O)Oc1ccccc1C(=O)Nc1ncc([N+](=O)[O-])s1` [nitazoxanide], the EC50 (CHIKV [1]) is listed as 2.96 µM.

With `CCCOc1ccc2nc(NC(=O)OC)[nH]c2c1` [OBZ, oxibendazole] the inhibition at 50 µM (CHIKV 181-25 strain) was 66.4 ± 2.5%, the EC50 (CHIKV BRA/RJ/18 [2]) was 11.4 ± 3.2 µM and the inhibition at 50 µM (CHIKV BRA/RJ/18 [2]) was 61.8 ± 2.7%. For the same molecule, the “CHIKV BRA/RJ/18 SI (selectivity index)” value (CHIKV BRA/RJ/18 [2]) was greater than 44.0, the inhibition at 50 µM (CHIKV BRA/RJ/18 [5]; read-out: inhibition rate in time-of-addition assay, 50 μM, added after 4 hpi until 10 hpi) was roughly 40% and the inhibition at 50 µM (CHIKV BRA/RJ/18 [5]; read-out: inhibition rate in time-of-addition assay, 50 μM, added until 4 hpi) was roughly 55%. The virucidal effect (CHIKV BRA/RJ/18 [6]) was “no virucidal effects were observed”, the EC50 (human herpesvirus 8) was 1.5 µM and the EC50 (Zika virus) was 0.7 µM. The “lethality (LD50 not determinable)” value (rats) was “no deaths were reported”, the “lethality (LD50 not determinable)” value (mice) was “no deaths were reported” and the “side effects in clinical trials” value [7] was “low frequency of side effects”. For the same molecule, the inhibition at 50 µM (CHIKV BRA/RJ/18 [8]) was 33.8%, the inhibition at 50 µM (CHIKV BRA/RJ/18 [9]) was 13.1% and the “intracellular/extracellular ratio of virus titers” value (CHIKV BRA/RJ/18 [10]) was 3.78. For the same molecule, the CC50 at 72 h [3] was greater than 500 µM.

In the case of `CCCCCOc1ccc(-c2cc(-c3ccc(C(=O)N[C@H]4C[C@@H](O)[C@@H](O)NC(=O)[C@@H]5[C@@H](O)[C@@H](C)CN5C(=O)[C@H]([C@H](O)CC(N)=O)NC(=O)[C@H]([C@H](O)[C@@H](O)c5ccc(O)c(OS(=O)(=O)O)c5)NC(=O)[C@@H]5C[C@@H](O)CN5C(=O)[C@H]([C@@H](C)O)NC4=O)cc3)no2)cc1` [micafungin] (X1-[Orn(4R-OH,5R-OH)]T[Hyp][hTyr(3S-OH,4S-OH,3'-OSO3H)][Gln(3R-OH)][Pro(3S-OH,4S-Me)]; lactam 1-C), the EC50 (CHIKV [1]) is given as 20.6 µM.

For `COC(=O)Nc1nc2ccc(C(=O)c3ccccc3)cc2[nH]1` [MBZ, mebendazole], the EC50 (CHIKV BRA/RJ/18 [2]) was greater than 50 µM, the “CHIKV BRA/RJ/18 EC50” value (CHIKV BRA/RJ/18 [2]) was “none exhibited anti-CHIKV activity” and the CC50 at 72 h [3] was greater than 500 µM.

With `COC(=O)Nc1nc2ccc(Sc3ccccc3)cc2[nH]1` [FBZ, fenbendazole] the EC50 (CHIKV BRA/RJ/18 [2]) was greater than 50 µM, the “CHIKV BRA/RJ/18 EC50” value (CHIKV BRA/RJ/18 [2]) was “none exhibited anti-CHIKV activity” and the CC50 at 72 h [3] was greater than 500 µM.

In the case of `CC(C)OC(=O)[C@H](C)N[P@](=O)(OC[C@H]1O[C@@H](n2ccc(=O)[nH]c2=O)[C@](C)(F)[C@@H]1O)Oc1ccccc1` [sofosbuvir], the EC50 (CHIKV [1]) is listed as 2.7 µM and the “effect on CHIKV infection in mice” value (CHIKV [4]) is listed as “ameliorate CHIKV infection in mice”.

With `CCCCCOC(=O)Nc1nc(=O)n([C@@H]2O[C@H](C)[C@@H](O)[C@H]2O)cc1F` [CPB, capecitabine] the inhibition at 50 µM (CHIKV 181-25 strain) was 0%, the “CHIKV 181-25 inhibition (%)” value (CHIKV 181-25 strain) was “did not present antiviral activity” and the “CHIKV 181-25 inhibition (%)” value (CHIKV 181-25 strain; listed as CPD) was “did not inhibit CHIKV replication”.
